EP2156835A1, “New therapeutic use of drotaverine” (Sanofi-Aventis, priority 2008, dated 2010)

Tested on: human isolated detrusor muscle
Assay: Relaxation of U46619-induced plateau of contraction in human isolated detrusor muscle strips (organ bath)
Details: for Emax at 100 µM / EC50: Homo sapiens; for Emax at 100 µM: at the concentration of 100 µM, percent relaxation of 1 µM U46619 plateau, 10 µM forskolin taken as 100% relaxation, read-out: maximal relaxant effect (Emax); for EC50: mean, relaxation of plateau of contraction induced by 1 µM U46619 after priming with 0.1 µM forskolin, CRC 0.03 - 100 µM, non linear regression fit, read-out: pEC50 (-log EC50) (converted)
Method: The detrusor muscle was separated from mucosa and adventitia and cut into small strips which were mounted, under 1 g initial tension, in 5 mL glass organ baths containing oxygenated Krebs-Henseleit solution (composition in mM: NaCl 114, KCl 4.7, CaCl2 2.5, MgS04 1.2, KH2PO4 1.2, NaHCO3 25, glucose 11.7) kept at 37°C. Tissues were allowed to equilibrate for at least 60 minutes during which time the Krebs solution was replaced every 15 min. After the stabilization period, a reference contraction to 80 mM KCl was performed on each strip. Tissues having a contraction less than 1 g were discarded. After wash-outs and a further 45 min of re-equilibration, during which the resting tension was adjusted periodically, each strip was primed with 0.1 µM forskolin, an adenylyl cyclise activator, for 10 min then recontracted with 1 µM U46619 for at least 20 min, until a stable plateau of contraction was obtained. Strips having a plateau of contraction less than 0.2 g were discarded. After obtaining a stable plateau of contraction, concentration-responses curves (CRC) to drotaverine and rolipram (0.03 - 100 µM) or the common vehicle (DMSO from 0.003 to 1 % in the organ bath) were performed. At the end of the CRC, the maximal relaxant effect for each strip was determined following application of 10 µM forskolin into the organ baths. Only one CRC to each substance or solvent was tested in a single strip. CRCs were constructed using 8 bladder strips from 4 different patients. Results were expressed as percent relaxation of the plateau of contraction induced by 1 µM U46619, with respect to the maximal effect obtained with 10 µM forskolin taken as 100% relaxation.
All CRCs were fitted by non linear regressions using the software GraphPad Prism® version 4.0 to obtain the following parameters: Emax: Maximal relaxation induced by the tested substance; EC50: the concentration which induces 50% of the maximum effect, expressed as pEC50 (-log EC50). Comparisons of the CRCs were performed with two-way analysis of variance (ANOVA) statistical analysis test and Bonferroni post-test. All differences will be considered statistically significant when the null hypothesis can be rejected at a risk α of less than 0.05.

EC50	Compound	Emax at 100 µM	relaxation of U46619-induced human detrusor contraction (from 0.03 to 100 µM)	relaxation of U46619-contracted detrusor strips (from 0.03 to 10 µM)	relaxation of U46619-induced detrusor muscle contraction (from 30 to 100 µM)
0.151 µM	COc1ccc(C2CNC(=O)C2)cc1OC1CCCC1 (stereo not shown) [rolipram]	89.5 ± 2.68%	significant concentration-dependent relaxation		
32.4 µM	CCOc1ccc(C=C2NCCc3cc(OCC)c(OCC)cc32)cc1OCC [drotaverine, 1-[(3,4-diethoxyphenyl)methylene]-6,7-diethoxy-1,2,3,4-tetrahydro-isoquinoline]	80.8 ± 3.07%		slight relaxation	significant concentration-dependent relaxation
